Like-named read-outs stand apart in the source and are kept apart here.
Assays:
[1] = test system: microtubule network in PC-3 cells; test: Immunofluorescence assay of microtubule network; assay type: cell-based, human; settings: 50 nM, 24 h
Method: To evaluate the effects of 4k and 5a on intracellular microtubule, immunofluorescence assay was carried out to observe the changes of microtubule network in cell.
PC-3 cells in logarithmic phase were harvested and seeded onto 12-well cell plates with round coverslip on the bottom of each well at a density of 3 × 10^4 cells per well, and were cultured for 24 h. […] The medium was removed, and cells were washed with PBS twice, fixed with 4% formaldehyde in PBS for 30 min, then the solution was removed. Cells were washed with PBS twice, permeabilized with 0.2% (v/v) Triton X-100 in PBS for 30 min, then the solution was removed. Cells were washed with PBS twice, blocking the cells in 5% bovine serum albumin (BSA) for 30 min. Then BSA was removed, and cells were incubated with the primary α-tubulin antibody (Santa Cruz, CA) containing 2% BSA (v/v, 1: 100) overnight at 4 °C.
The following steps were operated in dark environment. The antibody was removed, then cells were washed with PBST twice and were added FITC-conjugated anti-mouse secondary antibody diluted (1:100) with 2% BSA in PBS and incubated at room temperature for 4 h. The cells were then washed with PBST twice, stained with 4′,6-diamidino-2-phenylindole (DAPI) for 30 min at room temperature, and washed with PBS twice. The round coverslips at the bottom of wells were taken out, and the images were photographed by a confocal microscope.

[2] = test system: human umbilical vein endothelial cells (HUVEC); test: MTT toxicity assay, normal cells HUVEC; assay type: cell-based; settings: for IC50: Homo sapiens, HUVEC, read-out: IC50 (μM) ± SD HUVEC; for SI-H: SI-H = IC50 (HUVEC)/IC50 (PC-3)
Method: The toxicity of compounds 4k and 5a was also tested by using human umbilical vein endothelial cells (HUVEC) and human liver cells (L02).
Cells grown in logarithmic phase were harvested and seeded onto 96-well cell plates at a density of 4 ∼ 5 × 10^3 cells per well (various from cell type) and were cultured for 24 h. Different concentrations of compounds were added into the wells, and the cells were cultured for another 72 h. The medium was removed, then 20 μL of MTT (5 mg/mL in PBS) was added to each well and the cells were incubated for 4 h. 150 μL of DMSO was added to each well to dissolve the formazan, and the absorbance at 490 nm of each well was measured by a microplate reader. IC50 values were calculated by SPSS software.

Bax = test: Western blot assay, Bax; assay type: cell-based, human; settings: PC-3 cells
Method: The expression of cell apoptosis-related proteins (Bax, Bcl-2, and cleaved caspase-9) after treatment of 4k and 5a was also measured by western blot assay.
PC-3 cells in logarithmic phase were harvested and seeded onto culture plates, and were cultured for 24 h. […] The proteins of PC-3 cells were extracted by RIPA buffer containing 1% PMSF (Beyotime Biotechnology, China). The protein concentration was measured by BCA Assay Kit (SEVEN Biotech, China). Equal amounts and concentration of protein were diluted in 5× loading buffer (Beyotime, China) and denatured by boiled for 5 min. Protein samples were separated on 12.5% SDS-PAGE gels (EpiZyme, China) and transferred to PVDF membranes (Millipore Corporation, Billerica, MA, USA). The membranes were blocked in QuickBlockTM Block Buffer (SEVEN Biotech, China) for 10 min at room temperature. Then the membranes were incubated with the primary antibodies overnight at 4 °C, including Cyclin B1 (1:2000, Proteintech, China), CDK1 (1:5000, Proteintech, China), BAX (1:5000, Proteintech, China), Bcl2 (1:1000, Proteintech, China), Caspase 9/p35/p10 (1:1000, Proteintech, China), and β-actin (1:20 000, Proteintech, China). […] The protein signals were detected by using chemiluminescent reagents kit (NCM Biotech, China) and visualised with ChemiDocImaging System (Tanon 5200, China). Protein expressions was quantified by using Fiji/ImageJ software.

Compound | effect on microtubule network [1] | IC50 ([2]; 72 h) [µM] | SI-H [2] | expression of Bax (Bax; western blot, 10, 20, 40 nM) | IC50 ([2]; 72 h drug exposure, MTT assay, normal cells) [µM] | expression of Bax (Bax; western blot, 20, 40 nM)
COc1cc(C2=NCC(=O)Nc3cn(-c4ccccc4)nc32)cc(OC)c1OC [5a, 2-Phenyl-8–(3,4,5-trimethoxyphenyl)-2,6-dihydropyrazolo[4,3-e][1,4]diazepin-5(4H)-one] | microtubule network was destroyed | 0.86 ± 0.229 | 147.7 | significantly increased |  | 
COc1cc(C(=O)c2nn(-c3ccc(N)cc3)cc2N)cc(OC)c1OC [4k, (4-amino-1–(4-aminophenyl)-1H-pyrazol-3-yl)(3,4,5-trimethoxyphenyl)methanone] | microtubule network was destroyed |  | 39.11 |  | 0.57 ± 0.167 | significantly increased

From publication PMC12459184, “Design, synthesis, and bioevaluation of pyrazole-containing tubulin polymerisation inhibitors based on conformational constraint strategy” (Journal of Enzyme Inhibition and Medicinal Chemistry, 2025)
